Experimental data taken from patent US11999739B2, “Antimicrobials methods of making and using the same” (BIOVERSYS AG, priority 2016, dated 2024).

Experiments:
[1] = tested on: Staphylococcus aureus (S. aureus) 11540 strain; test: Standard microdilution MIC assay, S. aureus; format: cell-based
Summary of the method: (§1)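 MICs obtained by CLSI-standard microdilution, quality-controlled with reference strains in parallel. Values reported as + or − relative to a 16 micrograms/mL cutoff.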

[2] = tested on: Escherichia coli strain ATCC25922; test: Standard microdilution MIC assay, E. coli; format: cell-based
Summary of the method: as §1

| SMILES | MIC [1] | MIC [2] |
| --- | --- | --- |
| CC(=N)NCC[C@@H]1CCC[C@@H](c2ccc(-n3cc4cc(-c5cc(CCC[C@@H](N)C6CC6)cc(C(F)(F)F)c5)[nH]c4nc3=O)cc2F)N1 [Compound 211] | ≤ 16 µg/mL | ≤ 16 µg/mL |
| CC(=N)NCCCN[C@@H](CO)c1ccc(-n2cc3cc(-c4cc(CCC[C@H](C)N)cc(Cl)c4F)[nH]c3nc2=O)cc1 [Compound 132] | ≤ 16 µg/mL | ≤ 16 µg/mL |
| CC(=N)NCCCN[C@@H](C)c1ccc(-n2cc3cc(-c4cc(CCCC5(N)CC5)cc(Cl)c4F)[nH]c3nc2=O)cc1F [Compound 148] | ≤ 16 µg/mL | ≤ 16 µg/mL |
| CC(=N)NCC[C@H]1CNC[C@@H](c2ccc(-n3cc4cc(-c5cc(CCC[C@H](C)N)cc(Cl)c5F)[nH]c4nc3=O)cc2)N1 [Compound 48] | ≤ 16 µg/mL | ≤ 16 µg/mL |
| CC(=N)NCC[C@@H]1COC[C@@H](c2ccc(-n3cc4cc(-c5cc(CCC[C@@H](N)C6CC6)cc(Cl)c5F)[nH]c4nc3=O)cc2)N1 [Compound 98] | ≤ 16 µg/mL | ≤ 16 µg/mL |
| COC[C@H](N)CCCc1cc(-c2cc3cn(-c4ccc([C@@H]5CCC[C@@H](CCNC(C)=N)N5)c(OC(F)(F)F)c4)c(=O)nc3[nH]2)c(F)c(C(F)(F)F)c1 [Compound 216] | ≤ 16 µg/mL | ≤ 16 µg/mL |
| CC(=N)NCC[C@@H]1CCC[C@@H](c2ccc(-n3cc4cc(-c5cc(CCC[C@@H](N)CF)cc(C(F)(F)F)c5F)[nH]c4nc3=O)cc2F)N1 [Compound 221] | ≤ 16 µg/mL | ≤ 16 µg/mL |
| CC(=N)NCC[C@@H]1CCC[C@@H](c2ccc(-n3cc4cc(-c5cc(CCC[C@@H]6COCC(=O)N6)cc(Cl)c5F)[nH]c4nc3=O)cc2)N1 [Compound 227] | ≤ 16 µg/mL | ≤ 16 µg/mL |
| C=C[C@@H](N)CCCc1cc(Cl)c(F)c(-c2cc3cn(-c4ccc([C@@H]5CCC[C@@H](CCNC(C)=N)N5C)cc4)c(=O)nc3[nH]2)c1 [Compound 124] | ≤ 16 µg/mL | ≤ 16 µg/mL |
| C=C[C@@H](CCNC(C)=N)N[C@@H](C)c1ccc(-n2cc3cc(-c4cc(CCC[C@@H](N)CO)cc(Cl)c4F)[nH]c3nc2=O)cc1 [Compound 151] | ≤ 16 µg/mL | ≤ 16 µg/mL |
| CC(=N)NCC[C@@H]1CSC[C@@H](c2ccc(-n3cc4cc(-c5cc(CCC[C@H](C)N)cc(Cl)c5F)[nH]c4nc3=O)cc2)N1 [Compound 271] | ≤ 16 µg/mL | ≤ 16 µg/mL |
| COC[C@H](N)CCCc1cc(OC(F)(F)F)c(F)c(-c2cc3cn(-c4ccc([C@@H]5CCC[C@@H](CCNC(C)=N)N5)cc4)c(=O)nc3[nH]2)c1 [Compound 195] | ≤ 16 µg/mL | ≤ 16 µg/mL |
| COCCC(=N)NCC[C@@H]1CCC[C@@H](c2ccc(-n3cc4cc(-c5cc(CCC[C@H](C)N)cc(Cl)c5F)[nH]c4nc3=O)cc2)N1 [Compound 348] | ≤ 16 µg/mL | ≤ 16 µg/mL |
| C=C[C@@H](CCNC(=N)CSC)NCc1ccc(-n2cc3cc(-c4cc(CCC[C@H](C)N)cc(Cl)c4F)[nH]c3nc2=O)cc1 [Compound 59] | ≤ 16 µg/mL | ≤ 16 µg/mL |
| CSc1cc(-n2cc3cc(-c4cc(CCC[C@@H](N)C5CC5)cc(Cl)c4F)[nH]c3nc2=O)cc(F)c1[C@@H]1CCC[C@@H](CCNC(C)=N)N1 [Compound 275] | ≤ 16 µg/mL | ≤ 16 µg/mL |
| CC(=N)N[C@@H](C)C[C@@H]1CCC[C@@H](c2ccc(-n3cc4cc(-c5cc(CCC[C@H](C)N)cc(Cl)c5F)[nH]c4nc3=O)cc2)N1 [Compound 253] | ≤ 16 µg/mL | ≤ 16 µg/mL |
| CC(=N)NCC[C@@H]1CCC[C@@H](c2c(F)cc(-n3cc4cc(-c5cc(CCC[C@@H](N)C6CC6)cc(C(F)(F)F)c5)[nH]c4nc3=O)cc2F)N1 [Compound 285] | ≤ 16 µg/mL | ≤ 16 µg/mL |
| C[C@H](N)CCCc1cc(Cl)c(F)c(-c2cc3cn(-c4ccc([C@@H]5CNC[C@@H](CCNC(=N)CF)N5)cc4)c(=O)nc3[nH]2)c1 [Compound 51] | ≤ 16 µg/mL | ≤ 16 µg/mL |
| CC(=N)NCC[C@@H]1CCC[C@@H](c2ccc(-n3cc4cc(-c5cc(CCC[C@@H](N)C6CC6)cc(Cl)c5F)[nH]c4nc3=O)cc2)N1 [Compound 78] | ≤ 16 µg/mL | ≤ 16 µg/mL |
| CC(=N)NCC[C@@H]1CCC[C@@H](c2ccc(-n3cc4cc(-c5ccc(C(F)(F)F)c(CCC[C@H](C)N)c5)[nH]c4nc3=O)cc2)N1 [Compound 287] | ≤ 16 µg/mL | ≤ 16 µg/mL |
| C[C@H](N)CCCc1cc(Cl)c(F)c(-c2cc3cn(-c4ccc([C@@H]5CNC[C@H](CCNC(=N)CF)N5)cc4)c(=O)nc3[nH]2)c1 [Compound 49] | ≤ 16 µg/mL | ≤ 16 µg/mL |
| CC(=N)NCCCN[C@H](c1ccc(-n2cc3cc(-c4cc(CCC[C@H](C)N)cc(Cl)c4F)[nH]c3nc2=O)cc1)C(F)F [Compound 159] | ≤ 16 µg/mL | ≤ 16 µg/mL |
| C=C[C@@H](CCNC(C)=N)NCc1ccc(-n2cc3cc(-c4cc(CCC[C@@H](N)CC#N)cc(Cl)c4F)[nH]c3nc2=O)cc1 [Compound 155] | ≤ 16 µg/mL | ≤ 16 µg/mL |
| CC(=N)NCC[C@@H]1COC[C@@H](c2ccc(-n3cc4cc(-c5cc(CCC[C@@H](N)C(F)(F)F)cc(Cl)c5F)[nH]c4nc3=O)cc2)N1 [Compound 66] | > 16 µg/mL | > 16 µg/mL |
| COc1cc(-n2cc3cc(-c4cc(CCC[C@@H](N)C5CC5)cc(C(F)(F)F)c4)[nH]c3nc2=O)ccc1[C@@H]1CCC[C@@H](CCNC(C)=N)N1 [Compound 243] | ≤ 16 µg/mL | ≤ 16 µg/mL |
| CSc1cc(-n2cc3cc(-c4cc(CCC[C@@H]5COCCN5)cc(Cl)c4F)[nH]c3nc2=O)ccc1[C@@H]1CCC[C@@H](CCNC(C)=N)N1 [Compound 260] | ≤ 16 µg/mL | ≤ 16 µg/mL |
| CC(C)(CN)CCc1cc(Cl)c(F)c(-c2cc3cn(-c4ccc(CNCCCNC(=N)CF)c(F)c4)c(=O)nc3[nH]2)c1 [Compound 74] | ≤ 16 µg/mL | ≤ 16 µg/mL |
| CC(=N)NCC[C@@H]1CCC[C@@H](c2ccc(-n3cc4cc(-c5cc(CCC(F)(F)CN)cc(Cl)c5F)[nH]c4nc3=O)cc2)N1C [Compound 135] | ≤ 16 µg/mL | ≤ 16 µg/mL |
| CC(=N)NCC[C@@H]1CCC[C@@H](c2c(F)cc(-n3cc4cc(-c5cc(CCC[C@H](C)N)cc(Cl)c5F)[nH]c4nc3=O)cc2N2CCOCC2)N1 [Compound 282] | ≤ 16 µg/mL | ≤ 16 µg/mL |
| C=C[C@@H](N)CCCc1cc(Cl)c(F)c(-c2cc3cn(-c4ccc([C@@H]5CCC[C@@H](CCNC(C)=N)N5)c(SC)c4)c(=O)nc3[nH]2)c1 [Compound 128] | ≤ 16 µg/mL | ≤ 16 µg/mL |

Now from value to compound:

| MIC [1] | MIC [2] | SMILES |
| --- | --- | --- |
| ≤ 16 µg/mL | ≤ 16 µg/mL | C=C[C@H](N)CCCc1cc(Cl)c(F)c(-c2cc3cn(-c4ccc(CN[C@@H](C=C)CCNC(C)=N)cc4)c(=O)nc3[nH]2)c1 [Compound 101] |
| ≤ 16 µg/mL | ≤ 16 µg/mL | COC[C@H](N)CCCc1cc(OC(F)(F)F)c(F)c(-c2cc3cn(-c4ccc([C@@H]5CCC[C@@H](CCNC(C)=N)N5)c(OC)c4)c(=O)nc3[nH]2)c1 [Compound 197] |
| ≤ 16 µg/mL | ≤ 16 µg/mL | COC[C@H](N)CCCc1cc(OC(F)(F)F)c(F)c(-c2cc3cn(-c4ccc([C@@H]5CCC[C@@H](CCNC(C)=N)N5)c(OC(F)(F)F)c4)c(=O)nc3[nH]2)c1 [Compound 233] |
| ≤ 16 µg/mL | ≤ 16 µg/mL | CC(=N)NCC[C@@H]1CCC[C@@H](c2ccc(-n3cc4cc(-c5cc(CCC[C@@H](N)C6CC6)cc(C(F)(F)F)c5)[nH]c4nc3=O)cc2OC(F)(F)F)N1 [Compound 217] |
| ≤ 16 µg/mL | ≤ 16 µg/mL | C=C[C@H](N)CCCc1cc(Cl)c(F)c(-c2cc3cn(-c4ccc([C@@H]5CCC[C@@H](CCNC(C)=N)N5)c(F)c4)c(=O)nc3[nH]2)c1 [Compound 173] |
| ≤ 16 µg/mL | ≤ 16 µg/mL | C=C[C@@H](CCNC(=N)CCOCC)NCc1ccc(-n2cc3cc(-c4cc(CCC[C@H](C)N)cc(Cl)c4F)[nH]c3nc2=O)cc1 [Compound 52] |
| ≤ 16 µg/mL | ≤ 16 µg/mL | COc1cc(-n2cc3cc(-c4cc(CCC[C@@H](N)C5CC5)cc(Cl)c4F)[nH]c3nc2=O)cc(F)c1[C@@H]1CCC[C@@H](CCNC(C)=N)N1 [Compound 321] |
| ≤ 16 µg/mL | ≤ 16 µg/mL | COC[C@H](N)CCCc1cc(OC(F)(F)F)c(F)c(-c2cc3cn(-c4ccc([C@@H]5CCC[C@@H](C[C@H](C)NC(C)=N)N5)cc4)c(=O)nc3[nH]2)c1 [Compound 258] |
| ≤ 16 µg/mL | ≤ 16 µg/mL | C=C[C@H](N)CCCc1cc(Cl)c(F)c(-c2cc3cn(-c4ccc([C@H](C)N[C@@H](CO)CCNC(C)=N)c(F)c4)c(=O)nc3[nH]2)c1 [Compound 174] |
| ≤ 16 µg/mL | ≤ 16 µg/mL | C[C@H](N)CCCc1cc(Cl)c(F)c(-c2cc3cn(-c4ccc(CN[C@H](CCNC(=N)CF)CNc5ncc[nH]5)cc4)c(=O)nc3[nH]2)c1 [Compound 21] |
| ≤ 16 µg/mL | ≤ 16 µg/mL | CC(=N)NCC[C@H](CO)NCc1ccc(-n2cc3cc(-c4cc(CCCC(C)(C)N)cc(Cl)c4F)[nH]c3nc2=O)cc1 [Compound 40] |
| ≤ 16 µg/mL | ≤ 16 µg/mL | CSc1cc(-n2cc3cc(-c4cc(CCC[C@@H](N)C5CC5)cc(OC(F)(F)F)c4F)[nH]c3nc2=O)ccc1[C@@H]1CCC[C@@H](CCNC(C)=N)N1 [Compound 252] |
| ≤ 16 µg/mL | ≤ 16 µg/mL | CC(=N)NCCCN[C@H](C)c1ccc(-n2cc3cc(-c4cc(CCC[C@H](C)N)cc(Cl)c4F)[nH]c3nc2=O)cc1F [Compound 112] |
| ≤ 16 µg/mL | ≤ 16 µg/mL | CC(C)(CN)CCc1cc(Cl)c(F)c(-c2cc3cn(-c4ccc([C@@H]5COC[C@@H](CCNC(=N)CF)N5)cc4)c(=O)nc3[nH]2)c1 [Compound 72] |
| ≤ 16 µg/mL | ≤ 16 µg/mL | CC(=N)NCC[C@@H]1CCC[C@@H](c2ccc(-n3cc4cc(-c5cc(CCC[C@@H](N)CC(N)=O)cc(Cl)c5F)[nH]c4nc3=O)cc2)N1 [Compound 156] |
| ≤ 16 µg/mL | ≤ 16 µg/mL | C=CCC(=N)NCCC(C=C)NCc1ccc(-n2cc3cc(-c4cc(CCC[C@H](C)N)cc(Cl)c4F)[nH]c3nc2=O)cc1 (stereo partly shown) [Compound 33] |
| ≤ 16 µg/mL | ≤ 16 µg/mL | CC(=N)NCC[C@@H]1CCC[C@@H](c2ccc(-n3cc4cc(-c5cc(CCC[C@@H](N)CS(C)(=O)=O)cc(Cl)c5F)[nH]c4nc3=O)cc2)N1 [Compound 284] |
